Assay results from article PMC11202169, “A Novel Fluorescence-Based Microplate Assay for High-Throughput Screening of hSULT1As Inhibitors” (Biosensors, 2024).

Experiments:
Assay type in all cases: biochemical
hSULT1A2 = molecular target: T1, hSULT1A2 (Homo sapiens, UniProt P50226); test: Fluorescence-based microplate inhibition assay, hSULT1A2-catalyzed HN-241 4-O-sulfation; settings: for Residue activity (%) hSULT1A2 / remaining activity at 10 µM: test compound 10 μM, HN-241 5 μM, 15 min; for remaining activity at 10 µM: 0.25 h, read-out: Residue activity (%) hSULT1A2
T1 construct: 6-histidine tag (N); TEV site (N); made in house; host or cells: Escherichia coli BL21 (DE3), pET29a(+)
T1 sequence (P50226 whole entry): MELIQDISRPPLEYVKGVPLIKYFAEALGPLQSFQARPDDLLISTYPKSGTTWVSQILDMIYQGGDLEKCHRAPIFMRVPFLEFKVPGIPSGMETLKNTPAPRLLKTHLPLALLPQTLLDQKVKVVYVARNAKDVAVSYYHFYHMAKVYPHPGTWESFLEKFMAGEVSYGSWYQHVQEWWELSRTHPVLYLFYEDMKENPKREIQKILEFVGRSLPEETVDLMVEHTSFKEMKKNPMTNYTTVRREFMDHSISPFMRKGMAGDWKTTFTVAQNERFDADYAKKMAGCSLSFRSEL

hSULT1A3 = molecular target: T2, hSULT1A3 (Homo sapiens, UniProt P0DMM9); test: Fluorescence-based microplate inhibition assay, hSULT1A3-catalyzed HN-241 4-O-sulfation; settings: for Residue activity (%) hSULT1A3 / activity at 10 µM: test compound 10 μM, HN-241 10 μM, 15 min; for activity at 10 µM: read-out: Residue activity (%) hSULT1A3
T2 construct: 6-histidine tag (N); TEV site (N); made in house; host or cells: Escherichia coli BL21 (DE3), pET29a(+)
T2 sequence (P0DMM9 whole entry): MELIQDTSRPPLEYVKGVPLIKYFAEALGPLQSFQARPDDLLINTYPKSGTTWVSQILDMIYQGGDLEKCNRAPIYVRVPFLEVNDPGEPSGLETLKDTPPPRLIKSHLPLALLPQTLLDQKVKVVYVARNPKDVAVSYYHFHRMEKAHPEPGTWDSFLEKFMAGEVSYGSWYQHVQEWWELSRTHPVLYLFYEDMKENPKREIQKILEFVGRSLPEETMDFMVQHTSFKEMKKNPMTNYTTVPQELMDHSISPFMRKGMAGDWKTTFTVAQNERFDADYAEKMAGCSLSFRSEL

hSULT1A1 = molecular target: T3, hSULT1A1 (Homo sapiens, UniProt P50225); test: Fluorescence-based microplate inhibition assay, hSULT1A1-catalyzed HN-241 4-O-sulfation; settings: for Residue activity (%) hSULT1A1 / activity at 1 µM: test compound 1 μM, HN-241 1 μM, 15 min; for activity at 1 µM: read-out: Residue activity (%) hSULT1A1; for IC50: hSULT1A1-catalyzed HN-241 4-O-sulfation;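 on all read-outs here: reaction started with 200 µM PAPS at 37 °C, fluorescence read continuously (Ex 350 nm, Em 450 nm), activity expressed relative to DMSO-only control without inhibitor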
T3 construct: 6-histidine tag (N); TEV site (N); made in house; host or cells: Escherichia coli BL21 (DE3), pET29a(+)
T3 sequence (P50225 whole entry): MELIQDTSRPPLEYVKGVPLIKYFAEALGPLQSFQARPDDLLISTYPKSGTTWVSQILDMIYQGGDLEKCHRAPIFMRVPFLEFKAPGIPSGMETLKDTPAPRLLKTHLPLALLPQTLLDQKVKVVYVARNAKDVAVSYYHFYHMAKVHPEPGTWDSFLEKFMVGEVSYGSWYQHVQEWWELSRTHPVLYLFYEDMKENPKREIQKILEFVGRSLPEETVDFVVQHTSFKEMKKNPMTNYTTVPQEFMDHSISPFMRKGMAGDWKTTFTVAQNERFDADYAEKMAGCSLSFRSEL

SMILES	Residue activity (%) hSULT1A2 (hSULT1A2) [%]	Residue activity (%) hSULT1A3 (hSULT1A3) [%]	Residue activity (%) hSULT1A1 (hSULT1A1) [%]	remaining activity at 10 µM (hSULT1A2) [%]	activity at 10 µM (hSULT1A3) [%]	activity at 1 µM (hSULT1A1) [%]	further results
CC(C)=CC/C=C(/C)[C@H]1CC[C@]2(C)[C@@H]1[C@H](O)C[C@@H]1[C@@]3(C)CC[C@H](O)C(C)(C)[C@@H]3[C@@H](O[C@@H]3O[C@H](CO)[C@@H](O)[C@H](O)[C@H]3O[C@@H]3O[C@@H](C)[C@H](O)[C@@H](O)[C@H]3O)C[C@]12C [Ginsenoside F4]	89.89	99.83	99.89				
CC(C)=CCC[C@](C)(O)[C@H]1CC[C@]2(C)[C@@H]1[C@H](O)C[C@@H]1[C@@]3(C)CC[C@H](O)C(C)(C)[C@@H]3[C@@H](O[C@@H]3O[C@H](CO)[C@@H](O)[C@H](O)[C@H]3O[C@@H]3O[C@H](CO)[C@@H](O)[C@H](O)[C@H]3O)C[C@]12C [Ginsenoside Rf]				104	104	102	
CC(C)=CCC[C@](C)(O)[C@H]1CC[C@]2(C)[C@@H]1[C@H](O)C[C@@H]1[C@@]3(C)CC[C@H](O)C(C)(C)[C@@H]3[C@@H](O[C@@H]3O[C@H](CO)[C@@H](O)[C@H](O)[C@H]3O[C@@H]3O[C@@H](C)[C@H](O)[C@@H](O)[C@H]3O)C[C@]12C [Ginsenoside Rg2]				106	100	113	
C=C(CCC=C(C)C)[C@H]1CC[C@]2(C)[C@@H]1[C@H](O)C[C@@H]1[C@@]3(C)CC[C@H](O)C(C)(C)[C@@H]3[C@@H](O[C@@H]3O[C@H](CO)[C@@H](O)[C@H](O)[C@H]3O[C@@H]3O[C@@H](C)[C@H](O)[C@@H](O)[C@H]3O)C[C@]12C [Ginsenoside Rg6]	103.59	124.68	100.32				
CC(C)=CCC[C@](C)(O)[C@H]1CC[C@]2(C)[C@@H]1[C@H](O)C[C@@H]1[C@@]3(C)CC[C@H](O)C(C)(C)[C@@H]3[C@@H](O[C@@H]3O[C@H](CO)[C@@H](O)[C@H](O)[C@H]3O)C[C@]12C [Ginsenoside Rh1]				96.5	100	114	
C=C(CCC=C(C)C)[C@H]1CC[C@]2(C)[C@@H]1[C@H](O)C[C@@H]1[C@@]3(C)CC[C@H](O[C@@H]4O[C@H](CO)[C@@H](O)[C@H](O)[C@H]4O)C(C)(C)[C@@H]3CC[C@]12C [Ginsenoside Rk2]	106.88	94.83	97.02				
COc1cc2c(=O)c(-c3ccc(O)cc3)coc2cc1O[C@@H]1O[C@H](CO)[C@@H](O)[C@H](O)[C@H]1O [Glycitin]	97.40	114.83	98.37				
CC1(C)[C@@H](O[C@H]2O[C@H](C(=O)O)[C@@H](O)[C@H](O)[C@H]2O[C@@H]2O[C@H](C(=O)O)[C@@H](O)[C@H](O)[C@H]2O)CC[C@]2(C)[C@H]3C(=O)C=C4[C@@H]5C[C@@](C)(C(=O)O)CC[C@]5(C)CC[C@@]4(C)[C@]3(C)CC[C@@H]12 [Glycyrrhizic acid]				112	121	106	
O=c1cc(-c2ccc(Oc3c(O)cc4oc(-c5ccc(O)cc5)cc(=O)c4c3O)cc2)oc2cc(O)cc(O)c12 [Hinokiflavone]				0	9.46	0	IC50 (hSULT1A2; hSULT1A2-catalyzed HN-241 4-O-sulfation): 110 ± 14.7 nM; IC50 (hSULT1A3; hSULT1A3-catalyzed HN-241 4-O-sulfation): 2130 ± 182 nM; IC50 (hSULT1A1): 18.9 ± 1.17 nM
COc1ccc(-c2oc3c(CC=C(C)C)c(O[C@@H]4O[C@H](CO)[C@@H](O)[C@H](O)[C@H]4O)cc(O)c3c(=O)c2O[C@@H]2O[C@@H](C)[C@H](O)[C@@H](O)[C@H]2O)cc1 [Icariin]				85.1	105	85.5	
COc1ccc(-c2oc3c(CC=C(C)C)c(O[C@@H]4O[C@H](CO)[C@@H](O)[C@H](O)[C@H]4O)cc(O)c3c(=O)c2O)cc1 [Icariside I]	103.62	104.97	91.81				
CC(C)=CCOc1c2occc2cc2ccc(=O)oc12 [Imperatorin]				94.3	128	101	
CC(C)Oc1ccc2c(=O)c(-c3ccccc3)coc2c1 [Ipriflavone]				89.5	117	61.3	
CC(C)=CCOc1c2ccoc2cc2oc(=O)ccc12 [Isoimperatorin]				106	92.1	92.5	
COc1cc(-c2oc3cc(O)cc(O)c3c(=O)c2O)ccc1O [Isorhamnetin]				0.39	58.3	1.36	
COc1cc(O)c(CC=C(C)C)c2c1C(=O)CC(c1ccc(O)cc1)O2 (stereo not shown) [Isoxanthohumol]				68.4	88	15.8	
COc1c(/C=C/C(=O)c2ccc(O)c(CC=C(C)C)c2)ccc(O)c1O [Licochalcone D]				0.21	30.9	0	IC50 (hSULT1A1): 5.37 ± 0.18 nM
O=C1C[C@@H](c2ccc(O)cc2)Oc2cc(O)ccc21 [Liquiritigenin]	25.92	76.68	58.91				
O=C1C[C@@H](c2ccc(O[C@@H]3O[C@H](CO)[C@@H](O)[C@H](O)[C@H]3O)cc2)Oc2cc(O)ccc21 [Liquiritin]				95.1	100	100	
C[C@@H]1[C@H]2[C@H](O[C@@H]3O[C@H](CO)[C@@H](O)[C@H](O)[C@H]3O)OC=C(C(=O)O)[C@H]2C[C@@H]1O [Loganic acid]				98.6	119	128	
COc1cc(OC)c(CCC(=O)c2ccc(O)cc2)c(OC)c1 [Loureirin B]	6.16	71.91	5.84				
COC(=O)/C=C/c1ccc(O)c(O)c1 [Methyl caffeate acid]	12.99	44.99	9.01				
Cc1c(O)c(C)c2c(c1O)C(=O)[C@H](Cc1ccc3c(c1)OCO3)CO2 [Methylophiopogonanone A]	0.52	79.90	28.87				
O=c1c(O)c(-c2ccc(O)cc2O)oc2cc(O)cc(O)c12 [Morin]				4.73	55.7	50.7	
CC(C)=CCc1c(-c2ccc(O)cc2O)oc2c(CC=C(C)C)c(O)cc(O)c2c1=O [Mulberrin]	143.65	70.86	53.37				
O=c1c(O)c(-c2cc(O)c(O)c(O)c2)oc2cc(O)cc(O)c12 [Myricetin]				4.43	39.8	0.08	
COc1cc(-c2oc3cc(O)cc(O)c3c(=O)c2O[C@@H]2O[C@H](CO[C@@H]3O[C@@H](C)[C@H](O)[C@@H](O)[C@H]3O)[C@@H](O)[C@H](O)[C@H]2O)ccc1O [Narcissoside]	86.78	60.08	99.20				
